Results as given in patent US4159373A, “7-Acyl-3-(sulfonic acid and sulfamoyl substituted tetrazolyl thiomethyl) cephalosporins” (SmithKline Corporation, priority 1978, dated 1979).
≈ marks a conversion by molar mass, not a printed value. Where two headings read alike, the source gives them in different places.

Assays:
Psuedo. sp. HH 63 = assay: MIC in vitro; type: cell-based, Pseudo. aeruginosa; details: Pseudomonas aeruginosa, read-out: MIC
Procedure: (§1) The compounds of Formula I have exceptional antibacterial activity against both Gram-positive and Gram-negative organisms. Minimum inhibitory concentrations (MIC's) ranged from 0.2 to <200 μg./ml. in in vitro testing.

Pseudo. aeruginosa 647 = assay: MIC in vitro; type: cell-based; details: Pseudomonas aeruginosa, read-out: MIC
Kleb. pneumoniae 982 = assay: MIC in vitro; type: cell-based; details: Klebsiella pneumoniae, read-out: MIC
E. coli SK 12140 = assay: MIC in vitro; type: cell-based; details: Escherichia coli, SK12140, E. coli SK&F 12140, read-out: MIC
Procedure: as §1

S. aureus HH 127 = assay: MIC in vitro; type: cell-based; details: Staphylococcus aureus, read-out: MIC
Procedure: as §1

Proteus morgani 179 = assay: MIC in vitro; type: cell-based; details: read-out: MIC
Procedure: as §1

Strep. Faecalis HH 34358 = assay: MIC in vitro; type: cell-based; details: Enterococcus faecalis, Strep. faecalis HH 34358, read-out: MIC
Procedure: as §1

Proteus mirabilis 444 = assay: MIC in vitro; type: cell-based; details: read-out: MIC
Enterobacter cloacae 921 = assay: MIC in vitro; type: cell-based
Staph. aureus 674 = assay: MIC in vitro; type: cell-based
Kleb. pneumo. 4200 = assay: In vivo mouse protection, Kleb. pneumo. 4200; details: sc
Serra. marc ATCC 13880 = assay: MIC in vitro; type: cell-based, Serratia marcescens; details: Serratia marcescens, Serratia marcescens ATCC 13880, read-out: MIC
Procedure: as §1

Staph. aureus 671 = assay: MIC in vitro; type: cell-based; details: Staphylococcus aureus
Kleb. pneumo. SK 4200 = assay: MIC in vitro; type: cell-based, Kleb. pneumoniae; details: Klebsiella pneumoniae, Kleb. pneumoniae SK&F 4200, read-out: MIC
Procedure: as §1

Kleb. pneumo. SK 1200 = assay: MIC in vitro; type: cell-based, Kleb. pneumoniae; details: Klebsiella pneumoniae, Kleb. pneumoniae SK&F 1200, read-out: MIC
Procedure: as §1

E. coli 804 = assay: MIC in vitro; type: cell-based; details: Escherichia coli, read-out: MIC
[1] = tested on: Entero. aerog. ATCC 13048; assay: MIC in vitro; type: cell-based, Enterobacter aerogenes; details: Klebsiella aerogenes, Enterobacter aerogenes 13048, read-out: MIC
Procedure: as §1

E. coli 12140 = assay: In vivo mouse protection, E. coli 12140; details: Escherichia coli, 12140, sc, s.c., E. coli SKF 12140, read-out: ED50

Question: Which results are given for NCc1ccc(CC(=O)NC2C(=O)N3C(C(=O)O)=C(CSc4nnnn4CS(=O)(=O)O)CSC23)cc1 (stereo not drawn) [Example 54, 7-(4-Aminomethylphenylacetamido)-3-(1-sulfomethyltetrazol-5-ylthiomethyl)-3-cephem-4-carboxylic acid]?
Answer: MIC (Psuedo. sp. HH 63; Example 54 table, Pseudo. aeruginosa HH 63): > 100 µg/mL; MIC (Pseudo. aeruginosa 647; Example 54 table): > 100 µg/mL; MIC (Kleb. pneumoniae 982; Example 54 table): > 100 µg/mL; MIC (E. coli SK 12140; Example 54 table): 6.3 µg/mL (≈ 11.3 µM); MIC (S. aureus HH 127; HH127, Example 54 table, Staph. aureus HH 127): 6.3 µg/mL (≈ 11.3 µM); MIC (Proteus morgani 179; Example 54 table): > 100 µg/mL; MIC (Strep. Faecalis HH 34358; Example 54 table): 100 µg/mL (≈ 180 µM); MIC (Proteus mirabilis 444; Example 54 table): 1.6 µg/mL (≈ 2.88 µM); MIC (Enterobacter cloacae 921; Enterobacter cloacae, 921, Example 54 table): 100 µg/mL (≈ 180 µM); MIC (Staph. aureus 674; Staphylococcus aureus, 674, Example 54 table): 3.1 µg/mL (≈ 5.58 µM); ED50 (Kleb. pneumo. 4200; Example 54, s.c., K. pneumo. SKF 4200, read-out: ED50): 0.7 mg/kg; MIC (Serra. marc ATCC 13880; ATCC13880, Example 54 table): > 100 µg/mL; MIC (Staph. aureus 671; Example 54 table): 3.1 µg/mL (≈ 5.58 µM); MIC (Kleb. pneumo. SK 4200; Example 54 table): 0.4 µg/mL (≈ 0.72 µM); MIC (Kleb. pneumo. SK 1200; Example 54 table): 0.4 µg/mL (≈ 0.72 µM); MIC (E. coli 804; Example 54 table): > 100 µg/mL; MIC ([1]; ATCC13048, Example 54 table): > 100 µg/mL; ED50 (E. coli 12140; Example 54): 8.7 mg/kg

Question: How did the MIC (Psuedo. sp. HH 63; Example 55 table, Pseudo. aeruginosa HH63) turn out when NCc1cccc(CC(=O)NC2C(=O)N3C(C(=O)O)=C(CSc4nnnn4CS(=O)(=O)O)CSC23)c1 (stereo not drawn) [Example 55, 7-(3-Aminomethylphenylacetamido)-3-(1-sulfomethyltetrazol-5-ylthiomethyl)-3-cephem-4-carboxylic acid] was run?
Answer: > 100 µg/mL

Question: And the MIC (Pseudo. aeruginosa 647; Example 55 table)?
Answer: > 100 µg/mL

Question: What about the MIC (Kleb. pneumoniae 982; Example 55 table) of the same compound?
Answer: > 100 µg/mL

Question: And the MIC (E. coli SK 12140; Example 55 table)?
Answer: 1.6 µg/mL (≈ 2.88 µM)

Question: And the MIC (S. aureus HH 127; Example 55 table, Staph. aureus HH127)?
Answer: 1.6 µg/mL (≈ 2.88 µM)

Question: And the MIC (Proteus morgani 179; Example 55 table)?
Answer: > 100 µg/mL

Question: What about the MIC (Strep. Faecalis HH 34358; Example 55 table) of the same compound?
Answer: 100 µg/mL (≈ 180 µM)

Question: And the MIC (Proteus mirabilis 444; Example 55 table)?
Answer: 0.4 µg/mL (≈ 0.72 µM)

Question: And the MIC (Enterobacter cloacae 921; Enterobacter cloacae, 921, Example 55 table)?
Answer: 25 µg/mL (≈ 45 µM)

Question: What about the MIC (Staph. aureus 674; Staphylococcus aureus, 674, Example 55 table) of the same compound?
Answer: 1.6 µg/mL (≈ 2.88 µM)

Question: And the ED50 (Kleb. pneumo. 4200; Example 55, s.c., K. pneumo. SK&F 4200, read-out: ED50)?
Answer: < 0.19 mg/kg

Question: And the MIC (Serra. marc ATCC 13880; ATCC13880, Example 55 table)?
Answer: > 100 µg/mL

Question: And the MIC (Staph. aureus 671; Example 55 table)?
Answer: 6.3 µg/mL (≈ 11.3 µM)

Question: And the MIC (Kleb. pneumo. SK 4200; Example 55 table)?
Answer: 0.2 µg/mL (≈ 0.36 µM)

Question: What about the MIC (Kleb. pneumo. SK 1200; Example 55 table) of the same compound?
Answer: ≤ 0.1 µg/mL

Question: And the MIC (E. coli 804; Example 55 table)?
Answer: > 100 µg/mL

Question: And the MIC ([1]; ATCC13048, Example 55 table)?
Answer: 50 µg/mL (≈ 90 µM)

Question: And the ED50 (E. coli 12140; Example 55)?
Answer: 1.82 mg/kg
